Values quoted from earlier work in patent EP4119941A1, “HEMOGLOBIN ASSAY METHOD” (Sekisui Medical Co., Ltd., priority 2020, dated 2021).

Conditions: at 25°C

For `O=S(=O)(O)CCNC(CO)(CO)CO` [TES, N-tris(hydroxymethyl)methyl-2-aminoethanesulfonic acid], the pKa is listed as 7.55.
